Data as given in patent EP4755888A1 (ILAb Co., Ltd., priority 2023, dated 2025).

Each compound was assayed against PD-1/PD-L1 (Homo sapiens, UniProt Q9NZQ7) (assay: TR-FRET PD-1/PD-L1 binding inhibition at the molecular level (free proteins)). Details: Tag1-PD-L1 and Tag2-PD-1 proteins, twelve concentrations from 200 nM, 2 hours at room temperature, read-out: FRET assay (IC50).
Procedure, shortened: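 HTRF read-out at 665/620 nm after 2 h at room temperature. Detection used anti-Tag1 Eu cryptate plus anti-Tag2 XL665 antibodies. Tagged PD-L1 and PD-1 proteins were pre-mixed with compound across twelve […] 1:2 dilutions starting at 200 nM.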

Sequence of PD-1/PD-L1 (Q9NZQ7 19-238 limits assumed): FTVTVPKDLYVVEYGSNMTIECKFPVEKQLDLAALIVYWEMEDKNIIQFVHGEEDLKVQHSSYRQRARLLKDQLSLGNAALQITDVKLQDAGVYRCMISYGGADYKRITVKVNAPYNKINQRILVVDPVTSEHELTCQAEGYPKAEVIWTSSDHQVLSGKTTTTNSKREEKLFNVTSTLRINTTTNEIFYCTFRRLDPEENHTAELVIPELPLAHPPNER

Row | Compound | IC50 [nM]
1 | Cc1c(NC(=O)c2cc3n(n2)CCCC3O)cccc1-c1cccc(-c2ccc(CNC[C@@H]3CCC(=O)N3)cc2)c1C (stereo partly drawn) [Compound 109, N-(2,2'-dimethyl-4"-(((((S)-5-oxopyrrolidin-2-yl)methyl)amino)methyl)-[1,1':3',1"-terphenyl]-3-yl)-4-hydroxy-4,5,6,7-tetrahydropyrazolo[1,5-a]pyridine-2-carboxamide] | < 10
2 | COc1nc(-c2cccc(-c3cccc(NC(=O)c4cc5n(n4)CCCC5O)c3C)c2C)cnc1CNC[C@@H]1CCC(=O)N1 (stereo partly drawn) [Compound 110, 4-hydroxy-N-(3'-(6-methoxy-5-(((((S)-5-oxopyrrolidin-2-yl)methyl)amino)methyl)pyrazin-2-yl)-2,2'-dimethyl-[1,1'-biphenyl]-3-yl)-4,5,6,7-tetrahydropyrazolo[1,5-a]pyridine-2-carboxamide] | < 10
3 | O=C1CC[C@@H](CNCc2ccc(-c3cccc(-c4cccc(NC(=O)c5cc6n(n5)CCCC6O)c4Cl)c3Cl)cc2)N1 (stereo partly drawn) [Compound 111, N-(2,2'-dichloro-4"-(((((S)-5-oxopyrrolidin-2-yl)methyl)amino)methyl)-[1,1':3',1"-terphenyl]-3-yl)-4-hydroxy-4,5,6,7-tetrahydropyrazolo[1,5-a]pyridine-2-carboxamide] | < 10
4 | COc1cc(-c2cccc(-c3cccc(NC(=O)c4cc5n(n4)CCCC5O)c3C)c2C)cc(F)c1CNC[C@@H]1CCC(=O)N1 (stereo partly drawn) [Compound 112, N-(3"-fluoro-5"-methoxy-2,2'-dimethyl-4"-(((((S)-5-oxopyrrolidin-2-yl)methyl)amino)methyl)-[1,1':3',1"-terphenyl]-3-yl)-4-hydroxy-4,5,6,7-tetrahydropyrazolo[1,5-a]pyridine-2-carboxamide] | < 10
5 | COc1cc(-c2cccc(-c3cccc(NC(=O)c4cc5n(n4)CCCC5O)c3C)c2C)cc(F)c1CNCCNC(C)=O (stereo not shown) [Compound 112-1, N-(4"-(((2-acetamidoethyl)amino)methyl)-3"-fluoro-5"-methoxy-2,2'-dimethyl-[1,1':3',1"-terphenyl]-3-yl)-4-hydroxy-4,5,6,7-tetrahydropyrazolo[1,5-a]pyridine-2-carboxamide] | < 10
6 | COc1cc(-c2cccc(-c3cccc(NC(=O)c4cc5n(n4)CCCC5O)c3C)c2C)cc(F)c1CN1CC[C@@H](O)C1 (stereo partly drawn) [Compound 113, N-(3"-fluoro-4"-(((R)-3-hydroxypyrrolidin-1-yl)methyl)-5"-methoxy-2,2'-dimethyl-[1,1':3',1"-terphenyl]-3-yl)-4-hydroxy-4,5,6,7-tetrahydropyrazolo[1,5-a]pyridine-2-carboxamide] | < 10
7 | COc1cc(-c2cccc(-c3cccc(NC(=O)c4cc5n(n4)CCCC5O)c3C)c2C)cc(F)c1CNCCO (stereo not shown) [Compound 114, N-(3"-fluoro-4"-(((2-hydroxyethyl)amino)methyl)-5"-methoxy-2,2'-dimethyl-[1,1':3',1 "-terphenyl]-3-yl)-4-hydroxy-4,5,6,7-tetrahydropyrazolo[1,5-a]pyridine-2-carboxamide] | < 10
8 | COc1cc(-c2cccc(-c3cccc(NC(=O)c4cc5n(n4)CCCC5N4CC[C@@H](O)C4)c3C)c2C)cc(F)c1CNC(C)(C)C(=O)O (stereo partly drawn) [Compound 115, 2-(((3-fluoro-3"-(4-((R)-3-hydroxypyrrolidin-1-yl)-4,5,6,7-tetrahydropyrazolo[1,5-a]pyridine-2-carboxamido)-5-methoxy-2',2"-dimethyl-[1,1':3',1"-terphenyl]-4-yl)methyl)amino)-2-methylpropanoic acid] | < 10
9 | COc1cc(-c2cccc(-c3cccc(NC(=O)c4cc5n(n4)CCCC5O)c3Cl)c2Cl)cc(F)c1CNCCNC(C)=O (stereo not shown) [Compound 116, N-(4"-(((2-acetamidoethyl)amino)methyl)-2,2'-dichloro-3"-fluoro-5"-methoxy-[1,1':3',1"-terphenyl]-3-yl)-4-hydroxy-4,5,6,7-tetrahydropyrazolo[1,5-a]pyridine-2-carboxamide] | 10 to 100
10 | COc1cc(-c2cccc(-c3cccc(NC(=O)c4cc5n(n4)CCCC5O)c3Cl)c2Cl)cc(F)c1CN1CC[C@@H](O)C1 (stereo partly drawn) [Compound 117, N-(2,2'-dichloro-3"-fluoro-4"-(((R)-3-hydroxypyrrolidin-1-yl)methyl)-5"-methoxy-[1,1':3',1"-terphenyl]-3-yl)-4-hydroxy-4,5,6,7-tetrahydropyrazolo[1,5-a]pyridine-2-carboxamide] | 10 to 100
11 | COc1cc(-c2cccc(-c3cccc(NC(=O)c4cc5n(n4)CCCC5O)c3Cl)c2Cl)cc(F)c1CNCCO (stereo not shown) [Compound 118, N-(2,2'-dichloro-3"-fluoro-4"-(((2-hydroxyethyl)amino)methyl)-5"-methoxy-[1,1':3',1"-terphenyl]-3-yl)-4-hydroxy-4,5,6,7-tetrahydropyrazolo[1,5-a]pyridine-2-carboxamide] | 10 to 100
12 | COc1cc(-c2cccc(-c3cccc(NC(=O)c4cc5n(n4)CCCC5O)c3Cl)c2Cl)cc(F)c1CNC[C@@H]1CCC(=O)N1 (stereo partly drawn) [Compound 119, N-(2,2'-dichloro-3"-fluoro-5"-methoxy-4"-(((((S)-5-oxopyrrolidin-2-yl)methyl)amino)methyl)-[1,1':3',1"-terphenyl]-3-yl)-4-hydroxy-4,5,6,7-tetrahydropyrazolo[1,5-a]pyridine-2-carboxamide] | 10 to 100
13 | COc1cc(-c2cccc(-c3cccc(NC(=O)c4cc5n(n4)CCCC5NCCO)c3Cl)c2Cl)cc(F)c1CNCCNC(C)=O (stereo not shown) [Compound 120, N-(4"-(((2-acetamidoethyl)amino)methyl)-2,2'-dichloro-3"-fluoro-5"-methoxy-[1,1':3',1"-terphenyl]-3-yl)-4-((2-hydroxyethyl)amino)-4,5,6,7-tetrahydropyrazolo[1,5-a]pyridine-2-carboxamide] | < 10
14 | COc1cc(-c2cccc(-c3cccc(NC(=O)c4cc5n(n4)CCCC5N4CC[C@@H](O)C4)c3Cl)c2Cl)cc(F)c1CNCCNC(C)=O (stereo partly drawn) [Compound 121, N-(4"-(((2-acetamidoethyl)amino)methyl)-2,2'-dichloro-3"-fluoro-5"-methoxy-[1,1':3',1"-terphenyl]-3-yl)-4-((R)-3-hydroxypyrrolidin-1-yl)-4,5,6,7-tetrahydropyrazolo[1,5-a]pyridine-2-carboxamide] | < 10
15 | COc1cc(-c2cccc(-c3cccc(NC(=O)c4cc5n(n4)CCCC5NCCO)c3Cl)c2Cl)cc(F)c1CN1CC[C@@H](O)C1 (stereo partly drawn) [Compound 122, N-(2,2'-dichloro-3"-fluoro-4"-(((R)-3-hydroxypyrrolidin-1-yl)methyl)-5"-methoxy-[1,1':3',1"-terphenyl]-3-yl)-4-((2-hydroxyethyl)amino)-4,5,6,7-tetrahydropyrazolo[1,5-a]pyridine-2-carboxamide] | < 10
16 | COc1cc(-c2cccc(-c3cccc(NC(=O)c4cc5n(n4)CCCC5N4CC[C@@H](O)C4)c3Cl)c2Cl)cc(F)c1CN1CC[C@@H](O)C1 (stereo partly drawn) [Compound 123, N-(2,2'-dichloro-3"-fluoro-4"-(((R)-3-hydroxypyrrolidin-1-yl)methyl)-5"-methoxy-[1,1':3',1 "-terphenyl]-3-yl)-4-((R)-3-hydroxypyrrolidin-1-yl)-4,5,6,7-tetrahydropyrazolo[1,5-a]pyridine-2-carboxamide] | < 10
17 | COc1cc(-c2cccc(-c3cccc(NC(=O)c4cc5n(n4)CCCC5NCCO)c3Cl)c2Cl)cc(F)c1CNCCO (stereo not shown) [Compound 124, N-(2,2'-dichloro-3"-fluoro-4"-(((2-hydroxyethyl)amino)methyl)-5"-methoxy-[1,1':3',1"-terphenyl]-3-yl)-4-((2-hydroxyethyl)amino)-4,5,6,7-tetrahydropyrazolo[1,5-a]pyridine-2-carboxamide] | < 10
18 | COc1cc(-c2cccc(-c3cccc(NC(=O)c4cc5n(n4)CCCC5N4CC[C@@H](O)C4)c3Cl)c2Cl)cc(F)c1CNCCO (stereo partly drawn) [Compound 125, N-(2,2'-dichloro-3"-fluoro-4"-(((2-hydroxyethyl)amino)methyl)-5"-methoxy-[1,1':3',1"-terphenyl]-3-yl)-4-((R)-3-hydroxypyrrolidin-1-yl)-4,5,6,7-tetrahydropyrazolo[1,5-a]pyridine-2-carboxamide] | < 10
19 | COc1cc(-c2cccc(-c3cccc(NC(=O)c4cc5n(n4)CCCC5NCCO)c3Cl)c2Cl)cc(F)c1CNC[C@@H]1CCC(=O)N1 (stereo partly drawn) [Compound 126, N-(2,2'-dichloro-3"-fluoro-5"-methoxy-4"-(((((S)-5-oxopyrrolidin-2-yl)methyl)amino)methyl)-[1,1':3',1"-terphenyl]-3-yl)-4-((2-hydroxyethyl)amino)-4,5,6,7-tetrahydropyrazolo[1,5-a]pyridine-2-carboxamide] | 10 to 100
20 | COc1cc(-c2cccc(-c3cccc(NC(=O)c4cc5n(n4)CCCC5N4CC[C@@H](O)C4)c3Cl)c2Cl)cc(F)c1CNC[C@@H]1CCC(=O)N1 (stereo partly drawn) [Compound 127, N-(2,2'-dichloro-3"-fluoro-5"-methoxy-4"-(((((S)-5-oxopyrrolidin-2-yl)methyl)amino)methyl)-[1,1':3',1"-terphenyl]-3-yl)-4-((R)-3-hydroxypyrrolidin-1-yl)-4,5,6,7-tetrahydropyrazolo[1,5-a]pyridine-2-carboxamide] | 10 to 100
21 | COc1cc(-c2cccc(-c3cccc(NC(=O)c4cc5n(n4)CCCC5N4CC[C@@H](O)C4)c3Cl)c2Cl)cc(F)c1CNC(C)(C)C(=O)O (stereo partly drawn) [Compound 128, 2-(((2',2"-dichloro-3-fluoro-3"-(4-((R)-3-hydroxypyrrolidin-1-yl)-4,5,6,7-tetrahydropyrazolo[1,5-a]pyridine-2-carboxamido)-5-methoxy-[1,1':3',1"-terphenyl]-4-yl)methyl)amino)-2-methylpropanoic acid] | < 10
22 | Cc1c(NC(=O)c2cc3n(n2)CCCC3O)cccc1-c1cccc(Nc2nc(C(F)F)nc3cc(CN4CC[C@@H](O)C4)cnc23)c1C (stereo partly drawn) [Compound 129, N-(3'-((2-(difluoromethyl)-7-(((R)-3-hydroxypyrrolidin-1-yl)methyl)pyrido[3,2-d]pyrimidin-4-yl)amino)-2,2'-dimethyl-[1,1'-biphenyl]-3-yl)-4-hydroxy-4,5,6,7-tetrahydropyrazolo[1,5-a]pyridine-2-carboxamide] | < 10
